Laboratory results from a melting point compilation (Tetko et al.; mined from patent text by program, amines drawn as free bases though some values may be those of a salt).

In the case of `O=C1CC(O)CC(CCc2c(Cl)cc(Cl)cc2OCc2ccc(C(F)(F)F)cc2)O1` (centres undefined), the melting point is reported as 104 to 105 °C.
Molecule `CC#CCC(CC#CC)(C(=O)O)S(=O)(=O)c1ccc(N2CCC(NC[C@H](O)c3ccc(O)c(NS(C)(=O)=O)c3)CC2)cc1` has a melting point of 175 to 177 °C.
`CC#CCn1nc(-c2ccc(F)cc2)c(-c2ccc(S(C)(=O)=O)cc2)cc1=O` showed a melting point of 81 to 82 °C.
For `NC(=O)c1ccc(CCCOCCCCCCNCC(O)c2cc(Cl)c(N)c(Cl)c2)cc1` (centres undefined), the melting point was 91 to 94 °C.
In the case of `O=c1nc(-c2cccc(S(=O)(=O)CCCc3ccccc3)n2)sc2ccccc12`, the melting point is reported as 150 to 151 °C.
In the case of `CCOC(=O)/C=C/c1cn(-c2ccccc2)nc1OCc1ccc(OCc2nc(-c3ccccc3)oc2C)cc1`, the melting point is reported as 154 to 155 °C.
In the case of `CCN(CC)c1ccc(N(c2ccc(N(C)C)cc2)C2(c3ccc(N(CC)CC)cc3C)OC(=O)c3ccccc32)cc1` (centres undefined), the melting point is reported as 68 to 83 °C.
For `COCCc1nc2c(N)nc3cc(Br)ccc3c2n1CCCN1CCCC1=O`, the melting point was 228 to 231 °C.
In the case of `CCOC(=O)COCc1nnc(S)o1`, the melting point is reported as 101 to 103 °C.
Work on `N#Cc1c(S(=O)(=O)C(F)(F)C(F)Cl)[nH]c2ccccc12` (centres undefined) yielded a melting point of 164 to 167 °C.
`O=C(NCCc1ccc(Cl)cc1Cl)Nc1cccc2[nH]ccc12` gave a melting point of 170 °C.
`CCC(CC)c1ccc(Cl)c2nc3n(c12)CCCN3c1cnc(N(C)C)cc1C` showed a melting point of 228 to 230 °C.
For `COc1ccc(SCCNC(=O)N2CCCC2=O)cc1`, the melting point was 64 to 65 °C.
In the case of `CCS(=O)(=O)N1CCSc2cccc(Cl)c2C1`, the melting point is reported as 126 to 128 °C.
For `CCCOc1ccc2c(c1)[C@H](c1ccc(OC)cc1-c1ccccc1)[C@@H](C(=O)O)[C@@H]2c1ccc2c(c1)OCO2` (racemic), the melting point was 199 to 200 °C.
For `O/N=C(\Cl)c1cccc(Cl)c1`, the melting point was 58 to 60 °C.
`O=C(c1ccc(Cl)c([N+](=O)[O-])c1)c1ccccn1` showed a melting point of 98 to 99 °C.
With `CCc1cc(Br)cc(CC)c1N=C(c1ccccc1)c1ccccc1` the melting point was 112 °C.
Work on `Cc1cc(CO)c(C)cc1O` yielded a melting point of 164 to 165 °C.
With `O=C(Nc1ccc(-n2nc(C(F)(F)F)cc2C(F)(F)F)cc1)Nc1ccc([N+](=O)[O-])cc1Cl` the melting point was 229 to 230 °C.
In the case of `Cc1[nH]c(C(=O)NC2CCN(c3cc(C(=O)O)nc4ccccc34)CC2)c(Cl)c1Cl`, the melting point is reported as 254 to 256 °C.
With `NC(=O)c1ccc(N2CCN(Cc3cn4cc(Cl)ccc4n3)CC2)cc1` the melting point was 240 to 241 °C.
For `O=S(=O)(Cl)c1cc(Cl)c(Cl)c(S(=O)(=O)Cl)c1`, the melting point was 114 to 115 °C.
Work on `CS(=O)(=O)c1ccc(-c2c(-c3ccc(F)cc3)c(OCC(=O)c3cccs3)nn2CC(=O)c2cccs2)cc1` yielded a melting point of 136 to 138 °C.
In the case of `CCc1cc(-n2c(=O)[nH]c3cc(C(F)(F)F)c(Oc4ccccc4)cc32)c(OC)cc1OC`, the melting point is reported as > 240 °C.
In the case of `FC(F)(F)c1cccc(N2CCN(Cc3n[nH]c4ccccc34)CC2)c1`, the melting point is reported as 78 to 80 °C.
`CCOC(=O)C(=CNc1nc(C)c(C)s1)C(=O)OCC` gave a melting point of 82 to 83.5 °C.
In the case of `CC(C)(O)CN(c1ccc(F)cc1)[C@H]1c2cc(C#N)ccc2OC(C)(C)[C@@H]1O`, the melting point is reported as 70 °C.
In the case of `CC1(C)COP(=O)(Cc2ccc(N)cc2)OC1`, the melting point is reported as 152 to 153 °C.
Molecule `CC(C)C(=O)c1c(-c2ccc(F)cc2)nn2cc(C(F)(F)F)ccc12` has a melting point of 129 to 130 °C.
`CC(C)(C)OC(=O)N1CC[C@H](Oc2ccc([N+](=O)[O-])cc2)C1` gave a melting point of 112 to 114 °C.
With `O=C(c1ncc[nH]1)c1cc(F)c(F)cc1Cl` the melting point was 80 to 81 °C.
Work on `CCNC(=O)C1(C/C=C/c2ccccc2)c2ccccc2-c2ccccc21` yielded a melting point of 144 °C.
Work on `CSc1cc2c(cc1C(F)(F)F)N(C(=O)Nc1cccc(-c3csc(-c4cccnc4)n3)c1)CC2` yielded a melting point of 154 to 155 °C.
With `CCN(CC)c1ccc2cc(C(=O)OCCO)c(=O)oc2c1` the melting point was 106 to 108 °C.
`CCCCCCCCCCCC(=O)OC[C@H]1OCC(=NOCc2ccccc2)[C@@H](O)[C@@H]1O` gave a melting point of 45 to 50 °C.
Molecule `CCOC(=O)COc1ccc(O)c(Cl)c1` has a melting point of 80 to 82 °C.
Work on `Nc1ncc(-c2cccs2)nc1C(=O)Nc1cccnc1` yielded a melting point of 178 to 189 °C.
`CCCCCCCc1ccc(C(=O)Nc2ccc(C(=O)NN=C3C(=O)Nc4ccc(I)cc43)cc2)cc1` gave a melting point of 306 °C.
In the case of `O=C(OC1CCN(Cc2ccccc2)CC1)c1ccccc1I`, the melting point is reported as 73 to 74 °C.
`Cc1c(C2=CCC(c3cccc(F)c3)(N(C)C)CC2)[nH]c2ccccc12` (centres undefined) showed a melting point of 157 to 163 °C.
`CC(C)(C)OC(=O)NCCNC(=O)c1ncsc1-c1cccc(OCc2cccc(Cl)c2)c1` showed a melting point of 116 to 117 °C.
Molecule `CC(=O)Oc1ccccc1C1SC[C@@H](C(=O)O)N1C(=O)CCSC(=O)c1ccc(C)cc1` (some centres undefined) has a melting point of 93 to 96 °C.
In the case of `COc1cccc2c1OCN(CCc1ccc(C)cc1)C2`, the melting point is reported as 58 to 63 °C.
`CC1Cc2cc(S(=O)(=O)n3cc(-c4ccccc4)[nH]c3=O)ccc2N1C(=O)c1ccc(NC(=O)CCl)cc1` (centres undefined) showed a melting point of 246 °C.
With `CC(C)(C)OC(=O)N[C@@H](Cc1ccccc1)C(=O)CCC(=O)O` the melting point was 108 to 110 °C.
For `Clc1ccc(CSC(CCc2ccccc2)Cn2ccnc2)cc1Cl` (centres undefined), the melting point was 144 to 146 °C.
`O=C1c2ccccc2C(=O)N1CCc1ccc(C=Cc2ccccc2)cc1` gave a melting point of 212 to 215 °C.
In the case of `Oc1ccc(-c2nc3cc(O)c(Cl)cc3o2)cc1F`, the melting point is reported as 197 to 199 °C.
Molecule `Cc1c(C(N)=O)ncn1-c1cccc(Cl)c1` has a melting point of 179 to 181 °C.
Molecule `O=S(=O)(c1ccc2c(Cl)cccc2c1)N1CC2CC1CO2` (centres undefined) has a melting point of 132 to 133 °C.
In the case of `Cc1nc(=O)[nH]c2ccc(Cl)cc12`, the melting point is reported as > 270 °C.
In the case of `CCCc1ccc(S(=O)(=O)c2ccc(F)cc2)cc1S(=O)(=O)NCCc1cccnc1`, the melting point is reported as 111 to 113 °C.
`CS(=O)(=O)c1ccc(N2CCC(N3CCCC3)CC2)cc1` gave a melting point of 166 to 170 °C.
`Cc1cn(C2CC(O)C(CO)S2)c(=O)[nH]c1=O` (centres undefined) showed a melting point of 213 to 215 °C.
Molecule `CC(Oc1ccc(Oc2cnc3cc(Cl)ccc3n2)cc1F)C(=O)O` (centres undefined) has a melting point of 132 to 138 °C.
Molecule `FC(F)(F)c1cc2[nH]c(N3CCN(c4ncccc4Cl)CC3)nc2cc1Cl` has a melting point of 209 to 211 °C.
Work on `CC(=O)Nc1c(Cl)cnn1-c1c(F)c(F)c(C(F)(F)F)c(F)c1F` yielded a melting point of 45 to 47 °C.
Work on `O=Nc1c(O)cc(N2CCCCC2)c2oc3ccccc3c12` yielded a melting point of 181 to 185 °C.
In the case of `CN(C1CCCc2ccc([N+](=O)[O-])cc21)S(C)(=O)=O` (centres undefined), the melting point is reported as 138 to 140 °C.
With `S=C(NCCC1=CCCCC1)Nc1nc2ccccc2[nH]1` the melting point was 178 to 180 °C.
Molecule `COc1cccc2c1cc(C)n2Cc1c(Cl)cccc1Cl` has a melting point of 154 to 157 °C.
Molecule `CCN1C(=O)C(NC(=O)C(F)(F)F)CCc2c1ccc(Nc1ncc(Cl)c(Nc3ccccc3S(=O)(=O)N(C)C)n1)c2OC` (centres undefined) has a melting point of 250 to 251 °C.
Work on `CCOC(COC1CC2C3CCC4=CC(=O)C=CC4(C)C3(F)C(O)CC2(C)C1(O)C(=O)CCl)OCC` (centres undefined) yielded a melting point of 200 to 202 °C.
`CCCCCCCCCCCCCCCCOCC(CO)CF` (centres undefined) showed a melting point of 34 °C.
For `Clc1ccc(C=Cc2nc(CNc3ccc(CCCCn4ccnn4)cc3)co2)cc1Cl`, the melting point was 76.8 to 78.8 °C.
In the case of `NC(=O)c1sc2nccc(NCCCc3ccccc3)c2c1N`, the melting point is reported as 232 to 234 °C.
`NCc1noc(-c2ncn3c2[C@@H]2CCN2C(=O)c2c(Cl)cccc2-3)n1` gave a melting point of 206 to 208 °C.
`O=S(=O)(c1cccc(F)c1)c1ccc2[nH]c3c(c2c1)CCNCC3` showed a melting point of 153 to 156 °C.
For `O=C(N[C@@H](Cc1ccccc1)C(=O)NCCCNC(=O)[C@H](Cc1ccccc1)NC(=O)OCc1ccccc1)OCc1ccccc1`, the melting point was 226 to 227 °C.
Work on `C#CCOc1cc2c(cc1F)CCC2CCNC(=O)CC` (centres undefined) yielded a melting point of 78 to 81 °C.
`CC1(c2ccc(Cl)c(Cl)c2)CN(C(=O)c2ccc(F)c3ccccc23)CCN1C(=O)CNC1CCN(Cc2ccccc2)CC1` (racemic) showed a melting point of 93 to 96 °C.
With `CCCOc1cc(-c2cc(C=CC(=O)O)ccc2O)cc2c1C(C)(C)CCC2(C)C` the melting point was 114 to 116 °C.
`COC(=O)C1=NNC(C)=C(C(=O)OC)C1c1ccc(C)cc1` (centres undefined) showed a melting point of 180 °C.
`COc1cccc2c(Nc3ccccc3)nc(Cl)nc12` gave a melting point of 245 to 246 °C.
`CCC(C)Sc1cc(C(F)(F)F)ccc1C(=O)O` (centres undefined) showed a melting point of 99.8 to 101 °C.
With `COC(=O)/C=C/C1=C(c2ccc(OC)cc2)c2ccc(OC)cc2CC1` the melting point was 116 to 118 °C.
Molecule `CC(=O)N1CCC(CC(=O)c2ccc(Nc3ncnc4c3CCC4)cc2)CC1` has a melting point of 225 to 227 °C.
`Cc1ccc(S(=O)(=O)C=CC#N)cc1NS(=O)(=O)c1ccc2ccccc2c1` gave a melting point of 214 to 216 °C.
For `Cc1ccn(-c2ccc(C=O)cc2)n1`, the melting point was 96 to 98 °C.
In the case of `COCCN1CCc2ccc(Nc3ncc(Cl)c(Nc4ccccc4C(=O)NC(C)C)n3)cc2CC1`, the melting point is reported as 186 to 189 °C.
With `Cc1ccc(OCCOCCCCCCNCc2c(CO)ccc(O)c2CO)cc1C` the melting point was 65 to 68 °C.
Molecule `Nc1nc2c(sc(=O)n2CCCCC(=O)O)c(=O)[nH]1` has a melting point of 263 to 265 °C.
For `c1cc(CCCn2ccnc2)cc(OCc2ccc3oc(-c4cccs4)nc3c2)c1`, the melting point was 86 to 87 °C.
`CC(Oc1ccc(Cl)cc1)c1nnc(N)s1` (centres undefined) showed a melting point of 162 to 166 °C.
For `CSc1ccc(/C=C2\C=C(CCN(O)C(N)=O)c3ccccc32)cc1`, the melting point was 175 to 176 °C.
`CS(=O)(=O)Nc1ccc(OCCCN2C(=O)c3ccccc3C2=O)cc1` showed a melting point of 176 to 178 °C.
In the case of `Cc1cc([N+](=O)[O-])c(NCC(C)O)c([N+](=O)[O-])c1` (centres undefined), the melting point is reported as 80 °C.
Work on `CCOC(=O)C1=Cc2cc(Cl)cc(I)c2OC1C(F)(F)F` (centres undefined) yielded a melting point of 92.1 to 93.9 °C.
`CN(C)c1ccc(C(O)C#Cc2ccc(C(=O)O)cc2)cc1C(C)(C)C` (centres undefined) showed a melting point of 139 °C.
`CCCCCCCCCOc1ncc(-c2ccc(O)cc2)cn1` gave a melting point of 89 to 90 °C.
`Cc1ccc(-c2c(O)c(=O)c3ccccc3n2C)cc1` gave a melting point of 216 to 218 °C.
With `COC(=O)CCCC#Cc1cc(Cl)ccc1NS(=O)(=O)c1ccc2c(c1)C(C)(C)CCC2(C)C` the melting point was 113 to 115 °C.
`Nc1cc(OCc2ccccc2)c(C(=O)NC2CN3CCC2CC3)cc1Cl` (centres undefined) gave a melting point of 170 to 171 °C.
`CN1C(=S)N(c2ccc(C#N)c(C(F)(F)F)c2)C(=O)C1(C)C` showed a melting point of 171 °C.
For `CC(C)Cc1nn(C)c(=O)c2c(SCCCO)c(Cc3ccccc3)sc12`, the melting point was 60 to 65 °C.
Molecule `O=c1[nH]ccc2c1ccn2-c1ccc(C(F)(F)F)cc1Cl` has a melting point of 233 to 235 °C.
In the case of `CCOCc1nc2c(N)nc3ccccc3c2n1CCN1C(C)=NOC12CCCC2`, the melting point is reported as 211 to 213 °C.
`CNC(=O)C(Cc1ccc(OC)cc1)NC(=O)C(CC(C)C)C(S)CC(=O)OC` (centres undefined) gave a melting point of 80 to 86 °C.
